Where two headings read alike, the source gives them in different places. Residues, ends and D or L forms follow the SMILES beside them. *: point of attachment. Cbz = O=C(OCc1ccccc1)*; CH2F = FC*
Key:
[1] = tested on: human glycine N-methyltransferase promoter; test: GNMT promoter-driven luciferase reporter assay in H7GPL cells; assay type: cell-based; details: for fold induction at 10 µM: Homo sapiens, H7GPL, read-out: Fold change (10 uM)
Procedure: Please refer to FIG. 1, which illustrates the configuration of pLV-GNMTpLuc plasmid. HEK293T cells were cotransfected with a packaging plasmid-pCMV-ΔR8.91, a VSV-G envelope expressing plasmid-pMD.G and pLV-GNMTpLuc using TurboFect™ Reagent (Fermentas, Hanover, Md.). One resultant colony was picked, amplified and denominated as H7GPL (HuH-7-GNMT promoter-Luciferase). The relative luciferase activity (RLA) was calculated as “activity of luciferase/intensity of alamarBlue fluorescence”. The fold changes in GNMT promoter induction was calculated as “RLA of drug/RLA of solvent control”. Compounds with the ability to activate human glycine N-methyltransferase promoter in H7GPL could serve as a citeria for screening drugs.
Please refer to FIG. 2, which illustrates the luciferase activity in a screening platform. Previously, 26 FDA approved drugs were identified that can reverse the gene expression signature of HCC. We obtained 26 drugs. H7GPL cells were seeded in 96-well plates for 18 hours and then were treated with these 26 drugs and solvent control for an extra 24 hours.
In the initial screening, when (individual luciferase activity−average luciferase activity of all hits)/standardized Z scores of all samples is greater than 1.5, it means the compound has the capability of enhancing the GNMT reporter activity.
Huh7 cells were infected with this virus and selected with puromycin-containing medium. One resultant colony was picked, amplified and denominated as H7GPL (Huh7 GNMT promoter-luciferase). The cell lysate of H7GPL was used for luciferase activity measurement using the Luciferase Assay System (Promega).
For primary screening, H7GPL cells seeded in 96-well plates were treated for 24 h with individual drugs at a concentration of 2 mg/mL for crude extracts and 0.2 mg/mL for pure compounds and then were lysed for the luciferase activity assay using the Luciferase Assay System (Promega, Madison, Wis., USA).
Reporter activity for each well was transformed to the Z score by using data from all assay plates.
Then, hits of primary screening were sorted by Z score ≥1.5 and used for secondary screening.
And then placed in the above-described culture plate H7GPL cell replication, and after the disposal of seized goods in those 20 hours, the company added AbD serotec Reagent (Oxford, UK), further cultured for 4 hours.
The cytotoxicity was measured according to the manufacturer's recommendation for assessing the reporter gene.
Drugs that induced GNMT promoter activity ≥1.5-fold were considered as hits of the secondary screen with the capability of enhancing the activity of GNMT.

c-Myc protein = test: Protein degradation inhibitors on PGG-induced c-Myc degradation; assay type: cell-based, human; details: co-treatment with PGG, Huh7 cells, FIG. 45
Huh7-GNMT cells = test: Sorafenib cell viability in Huh7-GFP and Huh7-GNMT cells; assay type: cell-based, human; details: 2.5 μM sorafenib
Procedure: The cell viability is determined after Huh7-GFP cells capable of expressing Green fluorescent protein (GFP) and Huh7-GNMT cells are treated with an increased concentration of sorafenib.
Please refer to FIG. 26, which illustrates the effect of sorafenib on cell proliferation, wherein numerals 1 and 2 denote Huh7-GFP cells and Huh7-GNMT respectively.
Stablized cells comprises Huh7-GFP, Huh7-GNMT, Huh7-shGNMT, Huh7-shLacZ and Huh7-shMyc, which are established via the lentivirus system and cultured in Dulbecco's Modified Eagle's Medium (DMEM) (Gibco BRL, Grand Island, N.Y., USA) with 1 μg/ml puromycin.

[2] = tested on: Huh7-GFP and Huh7-GNMT transfected cells; test: Sorafenib in Huh7-GFP / Huh7-GNMT xenograft; assay type: in vivo, NOD-SCID mice
Procedure: To assess the effect of additional GNMT to administering sorafenib, female nonobese diabetic/severe combined immunodeficiency (NOD-SCID) mice lacking thymus gland were subcutaneously injected with […] or Huh7-GFP cells. The mice were randomly grouped and treated with a sorafenib or a physiological saline. Overexpression of GNMT inhibits cancer cell proliferation compared to the tumor due to Huh7-GFP cells.
Please refer to FIG. 27, which illustrates that the tumor cells are treated with the compound of sorafenib, wherein the numeral 1 is for Huh7-GFP transfected cells administered with a physiological saline, the numeral 2 is for Huh7-GNMT transfected cells administered with a physiological saline, the numeral 3 is for Huh7-GFP transfected cells administered with 10 mg/kg sorafenib and the numeral 4 is for Huh7-GNMT transfected cells administered with 10 mg/kg sorafenib. […] Based on the above results, a survey for the effect of PGG combined with sorafenib as a combination therapy to liver cancer was conducted. […]
(§1) Tumor growth was monitored (every day or three times per week) by using Vernier caliper measurement of the length (L) and width (W) of the tumor.
(§2) Tumor volume (TV) was calculated by using the formula volume=(L×W^2)/2.

Huh7 cells = test: Combination treatment, Huh7 xenograft tumor volume; assay type: in vivo, NOD-SCID mice; details: sorafenib 10 mpk; F3-6 25 mpk or 300 mpk
Procedure: Please refer to FIG. 29, which illustrates the tumor volume, wherein the numeral 1 is for a physiological saline solution, the numeral 2 is for F3-6 (25 mg/kg (mpk)), the numeral 3 is for F3-6 (300 mpk), the numeral 4 is for sorafenib (10 mpk), the numeral 5 is for F3-6 (25 mpk) with sorafenib (10 mpk), and the numeral 6 is for PGG (25 mpk) with sorafenib (10 mpk).
To assess the combinatory effect of drugs, female nonobese diabetic/severe combined immunodeficiency (NOD-SCID) mice lacking thymus gland were injected with Huh7 cells (2×10^6).
Mice are administered F3-6 (25 mpk), F3-6 (300 mpk) or PGG (25 mpk) three times per week, and sorafenib (10 mpk) twice per week alone or combined with F3-6 or PGG as illustrated in FIG. 29.
as §1, §2

[3] = GNMT promoter induction, RLA of drug/RLA of solvent control, 10 uM, 24 hours

Molecule: O=c1cc(-c2ccc(O)cc2)oc2cc(O)cc(O)c12 [Apigenin]
- GNMT promoter activity (in words) ([1]; H7GPL luciferase): remarkably induced GNMT promoter activity
- fold induction at 10 µM [1, 3]: 1.8

Molecule: CC(C)COCC(CN(Cc1ccccc1)c1ccccc1)N1CCCC1 (stereo not drawn) [Bepridil]
- fold induction at 10 µM [1, 3]: 0.7

Molecule: CC[C@@]1(O)C(=O)OCc2c1cc1n(c2=O)Cc2cc3ccccc3nc2-1 [Camptothecin]
- fold induction at 10 µM [1, 3]: 0.4

Molecule: CN(C)CCCN1c2ccccc2Sc2ccc(Cl)cc21 [Chlorpromazine]
- fold induction at 10 µM [1, 3]: 0.7

Molecule: Cc1cc(C2CCCCC2)n(O)c(=O)c1 [Ciclopirox]
- GNMT promoter activity (in words) ([1]; H7GPL luciferase): remarkably induced GNMT promoter activity
- fold induction at 10 µM [1, 3]: 8.2

Molecule: Clc1ccc(C(OCCN2CCCCC2)c2ccccc2)cc1 (stereo not drawn) [Cloperastine]
- fold induction at 10 µM ([1]; 24 h): 1

Molecule: COc1ccccc1N1CCN(CCCCNC(=O)c2ccc3ccccc3c2)CC1.Cl.Cl [DO 897/99]
- Fold change (10 uM) [1, 3]: 0.9

Molecule: OCCN(CCO)c1nc(N2CCCCC2)c2nc(N(CCO)CCO)nc(N3CCCCC3)c2n1 [Dipyridamole]
- fold induction at 10 µM [1, 3]: 0.9

Molecule: O=C(O)CN(CCN(CC(=O)O)CC(=O)O)CC(=O)O [EDTA, ethylenediamine-tetraacetic acid]
- prevention of PGG-induced c-Myc degradation / inhibition of c-Myc protein expression (c-Myc protein): can not prevent

Molecule: O=C1Nc2ccc3ncsc3c2/C1=C/Nc1ccc(S(=O)(=O)Nc2ccccn2)cc1 [GW-8510]
- Fold change (10 uM) [1, 3]: 0.4

Molecule: O=c1cc(-c2ccc(O)c(O)c2)oc2cc(O)cc(O)c12 [Luteolin]
- GNMT promoter activity (in words) ([1]; H7GPL luciferase): remarkably induced GNMT promoter activity
- fold induction at 10 µM [1, 3]: 1.9

Molecule: CC(C)C[C@@H](C=O)NC(=O)[C@H](CC(C)C)NC(=O)[C@H](CC(C)C)NC(=O)OCc1ccccc1 [MG132, Z-LEU-LEU-LEU-CHO] (Cbz-Leu-Leu-Leu-aldehyde)
- prevention of PGG-induced c-Myc degradation / inhibition of c-Myc protein expression (c-Myc protein): can not prevent

Molecule: COC(=O)Nc1nc2ccc(C(=O)c3ccccc3)cc2[nH]1 [Mebendazole]
- fold induction at 10 µM [1, 3]: 1

Molecule: OC(c1cc(C(F)(F)F)nc2c(C(F)(F)F)cccc12)C1CCCCN1 (stereo not drawn) [Mefloquine]
- fold induction at 10 µM [1, 3]: 0.3

Molecule: Cl.N [NH4Cl]
- prevention of PGG-induced c-Myc degradation / inhibition of c-Myc protein expression (c-Myc protein): can not prevent

Molecule: CC(COc1ccccc1)N(CCCl)Cc1ccccc1 (stereo not drawn) [Phenoxybenzamine]
- fold induction at 10 µM ([1]; 24 h): 0.7

Molecule: CN1CCN(CCCN2c3ccccc3Sc3ccc(Cl)cc32)CC1 [Prochlorperazine]
- fold induction at 10 µM [1, 3]: 0.7

Molecule: Cc1cc(/C=C/c2ccc3cc(N(C)C)ccc3[n+]2C)c(C)n1-c1ccccc1 [Pyrvinium]
- fold induction at 10 µM [1, 3]: 0.5

Molecule: C[n+]1cc2c3c(ccc2c2ccc4cc5c(cc4c21)OCO5)OCO3 [Sanguinarine]
- fold induction at 10 µM ([1]; 24 h): 0.1

Molecule: Clc1ccc(CSC(Cn2ccnc2)c2ccc(Cl)cc2Cl)cc1 (stereo not drawn) [Sulconazole]
- fold induction at 10 µM [1, 3]: 0.5

Molecule: C=CCNC1=C2C[C@@H](C)C[C@H](OC)[C@H](O)[C@@H](C)/C=C(\C)[C@H](OC(N)=O)[C@@H](OC)/C=C\C=C(/C)C(=O)NC(=CC1=O)C2=O [Tanespimycin]
- fold induction at 10 µM [1, 3]: 0.5

Molecule: CSc1ccc2c(c1)N(CCC1CCCCN1C)c1ccccc1S2 (stereo not drawn) [Thioridazine]
- fold induction at 10 µM [1, 3]: 0.1

Molecule: CN1CCN(CCCN2c3ccccc3Sc3ccc(C(F)(F)F)cc32)CC1 [Trifluoperazine]
- fold induction at 10 µM [1, 3]: 0.1

Molecule: Cc1cc2cc3c(C)cc(=O)oc3c(C)c2o1 [Trioxysalen]
- fold induction at 10 µM ([1]; 24 h): 1.2

Molecule: COC(=O)C[C@H](NC(=O)[C@H](C)NC(=O)[C@@H](NC(=O)OCc1ccccc1)C(C)C)C(=O)CF [Z-VAD-FMK, N-Benzyloxycarbonyl-Val-Ala-Asp (Ome)fluoromethyl ketone] (Cbz-Val-Ala-Asp(OMe)-CH2F)
- prevention of PGG-induced c-Myc degradation / inhibition of c-Myc protein expression (c-Myc protein): can prevent

Molecule: CCCC[C@@H](C=O)NC(=O)[C@H](CC(C)C)NC(=O)OCc1ccccc1 [calpeptin, N-Benzyloxy-carbonyl-L-leucyl-L-norleucinal]
- prevention of PGG-induced c-Myc degradation / inhibition of c-Myc protein expression (c-Myc protein): can not prevent

Molecule: CCN(CC)CCCC(C)Nc1ccnc2cc(Cl)ccc12 (stereo not drawn) [chloroquine diphosphate]
- prevention of PGG-induced c-Myc degradation / inhibition of c-Myc protein expression (c-Myc protein): can not prevent

Molecule: Oc1c(I)cc(Cl)c2cccnc12 [clioquinol(quinoinol), clioquinol]
- GNMT promoter activity (in words) ([1]; H7GPL luciferase): remarkably induced GNMT promoter activity
- fold induction at 10 µM [1, 3]: 3.8

Molecule: O=C(O)c1cc(O)c(O)c(O)c1 [gallic acid]
- GNMT promoter activity (in words) ([1]; H7GPL luciferase): none of which can either affect the activity of GNMT promoter

Molecule: CNC(=O)c1cc(Oc2ccc(NC(=O)Nc3ccc(Cl)c(C(F)(F)F)c3)cc2)ccn1 [sorafenib, 4-[4-[[4-chloro-3-(trifluoromethyl)phenyl]carbamoylamino]phenoxy]-N-methyl-pyridine-2-carbox-amide]
- viability of GNMT stable cells compared to GFP control cells (Huh7-GNMT cells): decreased significantly
- size of the tumor, Huh7-GNMT transfected cells, compared with other groups ([2]; 10 mg/kg): reducing the size of the tumor is statistically significant
- tumor growth ([2]; oral 10 mpk, three days a week): significantly inhibits tumor growth
- tumor growth, single drug (Huh7 cells): effective in inhibiting the tumor growth

Molecule: O=C(CCCCCCC(=O)Nc1ccccc1)NO [suberoylanilide hydroxamic acid]
- GNMT promoter activity (in words) ([1]; H7GPL luciferase): remarkably induced GNMT promoter activity
- dose dependence of GNMT promoter activity ([1]; H7GPL luciferase): dose-dependently
- GNMT promoter activity (in words) ([1]; H7GPL luciferase, listed as SAHA): potent GNMT inducer
- fold induction at 10 µM ([1]; 24 h): 18.6

Molecule: CC(/C=C/C(=O)NO)=C\[C@@H](C)C(=O)c1ccc(N(C)C)cc1 [trichostatin A]
- Fold change (0.2 uM) ([1]; GNMT promoter induction, 0.2 uM, 24 hours): 3.4 with Fold
- GNMT promoter activity (in words) ([1]; H7GPL luciferase): remarkably induced GNMT promoter activity

Molecule: CC1=C(CO)C(=O)O[C@@H]([C@@H](C)[C@H]2CC[C@H]3[C@@H]4C[C@H]5O[C@]56[C@@H](O)C=CC(=O)[C@]6(C)[C@H]4CC[C@]23C)C1 [withaferin A]
- Fold change (10 uM) [1, 3]: 0

Molecule: Tyloxapol
- Fold change (10 uM) [1, 3]: 0.6
